The values below come from patent US20030232114A1, “Method for liquid enrichment with oxygen and applications of enriched liquids” (priority 2002, published 2003).

In the assay the test system is rats having a myocardial infarction due to a restriction of the coronaries. Briefly: Oxygen consumption in damaged tissues of rats with myocardial infarction (acute occlusion of blood vessels). The note with it: conventional oxygen treatment by inhalation by means of a cannula, monitored for five days. The assay is classed as in vivo. The procedure: The oxygen enriched solutions of the invention were tested on experimental animals subjected to an acute occlusion of blood vessels which provoked degenerative changes of the interested tissues.
An oxygen enriched physiological solution of 0.3 cc having an oxygen partial pressure of 2 bar was intravenously administered at a rate of 1 g/min twice a days to a first group of 5 rats having a myocardial infarction due to a restriction of the coronaries. A second group of rats with the same disease, was subjected to a conventional oxygen treatment by inhalation by means of a cannula.
The results of the treatment were monitored and scheduled for five days. The first group of animals, treated by administering a solution in accordance with an embodiment of the present invention consumed 20% of oxygen in the damaged tissues whereas the second group which received the oxygen by inhalation consumed only 5% of oxygen in the damaged tissues.

As for `O=O` [oxygen], the “oxygen consumed in the damaged tissues” value was 5%.
